Test results reported in ChEMBL document CHEMBL1201862, “PubChem BioAssay data set” (2004).
Each block holds one molecule with its values, some of them ahead of it. Calls of active or inactive are those of the source.

What was measured:
[1] = biological target: Fibroblast growth factor receptor 3 (Homo sapiens, UniProt P22607); format: functional
[2] = biological target: Mitogen-activated protein kinase 10 (Homo sapiens, UniProt P53779); assay: Navigating the Kinome. Panel member name: MAPK10; format: functional
Chain of Mitogen-activated protein kinase 10 (P53779 whole entry): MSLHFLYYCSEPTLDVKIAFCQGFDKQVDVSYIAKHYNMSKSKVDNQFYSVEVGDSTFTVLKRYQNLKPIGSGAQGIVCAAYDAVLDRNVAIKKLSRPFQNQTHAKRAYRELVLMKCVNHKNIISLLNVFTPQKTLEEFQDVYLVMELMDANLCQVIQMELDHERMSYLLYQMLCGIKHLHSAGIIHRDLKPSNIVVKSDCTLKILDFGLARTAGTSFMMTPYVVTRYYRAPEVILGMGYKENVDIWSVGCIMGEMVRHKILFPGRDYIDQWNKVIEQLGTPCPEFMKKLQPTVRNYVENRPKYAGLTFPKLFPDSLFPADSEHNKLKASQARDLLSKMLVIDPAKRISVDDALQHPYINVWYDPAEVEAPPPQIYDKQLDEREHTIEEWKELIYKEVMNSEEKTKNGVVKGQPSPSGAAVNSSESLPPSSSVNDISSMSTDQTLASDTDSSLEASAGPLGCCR

[3] = biological target: Mitogen-activated protein kinase 8 (Homo sapiens, UniProt P45983); format: functional;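 further: value comes from one member of a kinome-wide kinase profiling panel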
[4] = biological target: Serine/threonine-protein kinase MRCK alpha (Homo sapiens, UniProt Q5VT25); format: functional
[5] = biological target: Tyrosine-protein kinase ABL1 (Homo sapiens, UniProt P00519); format: functional
Chain of Tyrosine-protein kinase ABL1 (P00519 whole entry): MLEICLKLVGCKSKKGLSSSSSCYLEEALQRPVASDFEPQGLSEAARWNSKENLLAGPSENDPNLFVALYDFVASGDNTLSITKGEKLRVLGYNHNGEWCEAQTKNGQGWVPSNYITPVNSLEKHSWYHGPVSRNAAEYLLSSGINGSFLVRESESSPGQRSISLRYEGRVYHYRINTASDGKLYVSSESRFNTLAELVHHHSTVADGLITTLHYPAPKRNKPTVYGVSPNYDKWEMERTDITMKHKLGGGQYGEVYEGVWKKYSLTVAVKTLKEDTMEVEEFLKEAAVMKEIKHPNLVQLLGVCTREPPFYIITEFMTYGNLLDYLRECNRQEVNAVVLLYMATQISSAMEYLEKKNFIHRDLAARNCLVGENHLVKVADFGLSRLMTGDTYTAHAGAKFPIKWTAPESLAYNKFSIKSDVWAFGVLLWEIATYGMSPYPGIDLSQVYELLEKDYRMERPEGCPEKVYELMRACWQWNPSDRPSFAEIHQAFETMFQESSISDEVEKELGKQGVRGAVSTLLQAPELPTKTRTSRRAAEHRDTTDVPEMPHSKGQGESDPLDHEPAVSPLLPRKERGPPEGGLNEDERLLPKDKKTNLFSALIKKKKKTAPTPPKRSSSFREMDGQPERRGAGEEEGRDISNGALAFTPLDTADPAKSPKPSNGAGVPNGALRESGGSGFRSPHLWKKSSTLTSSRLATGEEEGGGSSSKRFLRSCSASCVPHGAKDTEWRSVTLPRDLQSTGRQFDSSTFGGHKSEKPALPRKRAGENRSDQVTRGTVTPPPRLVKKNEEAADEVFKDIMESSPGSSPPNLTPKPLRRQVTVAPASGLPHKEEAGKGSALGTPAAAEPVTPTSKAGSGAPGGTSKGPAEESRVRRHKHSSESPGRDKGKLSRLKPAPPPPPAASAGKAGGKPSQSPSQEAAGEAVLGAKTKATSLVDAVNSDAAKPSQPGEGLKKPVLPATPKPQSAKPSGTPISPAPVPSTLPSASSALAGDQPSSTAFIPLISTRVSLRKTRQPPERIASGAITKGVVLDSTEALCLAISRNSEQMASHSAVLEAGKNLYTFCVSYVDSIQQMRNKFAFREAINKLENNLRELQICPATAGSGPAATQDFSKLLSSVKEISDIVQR

[6] = biological target: Tyrosine-protein kinase Lyn (Homo sapiens, UniProt P07948); format: functional;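 further: lyn as one member of a kinase panel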
[7] = biological target: Serine/threonine-protein kinase D2 (Homo sapiens, UniProt Q9BZL6); format: functional;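 further: measured against PRKD2 as one member of a kinome-wide kinase profiling panel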
[8] = biological target: Serine/threonine-protein kinase Chk1 (Homo sapiens, UniProt O14757); format: functional;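 further: measured as one member of a kinome-wide kinase profiling panel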
Chain of Serine/threonine-protein kinase Chk1 (O14757 whole entry): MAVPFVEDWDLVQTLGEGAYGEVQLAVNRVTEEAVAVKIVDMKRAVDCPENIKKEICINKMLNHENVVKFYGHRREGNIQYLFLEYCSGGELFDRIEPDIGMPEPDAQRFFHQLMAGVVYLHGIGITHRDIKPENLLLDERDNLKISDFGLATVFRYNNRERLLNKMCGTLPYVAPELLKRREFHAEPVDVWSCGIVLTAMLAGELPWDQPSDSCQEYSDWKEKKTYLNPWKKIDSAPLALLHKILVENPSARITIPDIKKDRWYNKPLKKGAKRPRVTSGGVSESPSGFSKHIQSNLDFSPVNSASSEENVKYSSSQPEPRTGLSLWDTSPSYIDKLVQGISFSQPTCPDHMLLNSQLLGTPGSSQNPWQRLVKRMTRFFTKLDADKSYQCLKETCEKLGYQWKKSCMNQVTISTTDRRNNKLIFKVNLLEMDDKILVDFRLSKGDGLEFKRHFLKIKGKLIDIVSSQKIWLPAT

[9] = biological target: Misshapen-like kinase 1 (Homo sapiens, UniProt Q8N4C8); format: functional;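 further: kinome panel screen with MINK as the panel member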
[10] = biological target: Homeodomain-interacting protein kinase 2 (Homo sapiens, UniProt Q9H2X6); format: functional;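 further: measured within a kinome-wide kinase profiling panel, HIPK2 being one panel member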
[11] = biological target: Non-receptor tyrosine-protein kinase TYK2 (Homo sapiens, UniProt P29597); format: functional
[12] = biological target: Cyclin-dependent kinase 9 (Homo sapiens, UniProt P50750); format: functional;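 further: value from the CDK9 entry of a kinome-spanning kinase panel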
[13] = biological target: Serine/threonine-protein kinase TBK1 (Homo sapiens, UniProt Q9UHD2); assay: Navigating the Kinome. Panel member name: TBK1; format: functional
Chain of Serine/threonine-protein kinase TBK1 (Q9UHD2 whole entry): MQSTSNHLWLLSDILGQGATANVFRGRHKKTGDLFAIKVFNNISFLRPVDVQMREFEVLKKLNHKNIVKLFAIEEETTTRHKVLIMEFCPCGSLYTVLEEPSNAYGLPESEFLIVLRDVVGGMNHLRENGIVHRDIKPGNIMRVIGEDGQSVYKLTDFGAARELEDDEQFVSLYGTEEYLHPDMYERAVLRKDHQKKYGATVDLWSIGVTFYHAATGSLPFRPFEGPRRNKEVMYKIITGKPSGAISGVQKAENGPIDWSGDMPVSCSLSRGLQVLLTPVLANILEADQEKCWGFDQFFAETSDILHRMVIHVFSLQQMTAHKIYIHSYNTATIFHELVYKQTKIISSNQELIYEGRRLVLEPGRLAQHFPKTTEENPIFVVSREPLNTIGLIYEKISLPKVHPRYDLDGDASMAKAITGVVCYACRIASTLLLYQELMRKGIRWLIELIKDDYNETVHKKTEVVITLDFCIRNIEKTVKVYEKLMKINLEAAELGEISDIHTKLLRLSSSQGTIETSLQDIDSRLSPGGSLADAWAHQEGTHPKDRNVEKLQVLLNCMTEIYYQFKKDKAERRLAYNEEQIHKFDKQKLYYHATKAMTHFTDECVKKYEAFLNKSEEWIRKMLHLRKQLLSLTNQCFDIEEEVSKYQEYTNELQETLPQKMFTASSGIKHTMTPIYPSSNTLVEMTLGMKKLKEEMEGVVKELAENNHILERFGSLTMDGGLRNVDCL

[14] = biological target: MAP kinase-activated protein kinase 3 (Homo sapiens, UniProt Q16644); format: functional;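 further: value comes from a kinome-wide profiling panel in which MAPKAPK3 is one of the panel members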
[15] = biological target: Casein kinase I isoform gamma-1 (Homo sapiens, UniProt Q9HCP0); format: functional;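 further: measured as the CSNK1G1 member of a kinome profiling panel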
[16] = biological target: Tyrosine-protein kinase receptor TYRO3 (Homo sapiens, UniProt Q06418); format: functional;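 further: TYRO3 value obtained as one member of a kinome-wide profiling panel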
Chain of Tyrosine-protein kinase receptor TYRO3 (Q06418 whole entry): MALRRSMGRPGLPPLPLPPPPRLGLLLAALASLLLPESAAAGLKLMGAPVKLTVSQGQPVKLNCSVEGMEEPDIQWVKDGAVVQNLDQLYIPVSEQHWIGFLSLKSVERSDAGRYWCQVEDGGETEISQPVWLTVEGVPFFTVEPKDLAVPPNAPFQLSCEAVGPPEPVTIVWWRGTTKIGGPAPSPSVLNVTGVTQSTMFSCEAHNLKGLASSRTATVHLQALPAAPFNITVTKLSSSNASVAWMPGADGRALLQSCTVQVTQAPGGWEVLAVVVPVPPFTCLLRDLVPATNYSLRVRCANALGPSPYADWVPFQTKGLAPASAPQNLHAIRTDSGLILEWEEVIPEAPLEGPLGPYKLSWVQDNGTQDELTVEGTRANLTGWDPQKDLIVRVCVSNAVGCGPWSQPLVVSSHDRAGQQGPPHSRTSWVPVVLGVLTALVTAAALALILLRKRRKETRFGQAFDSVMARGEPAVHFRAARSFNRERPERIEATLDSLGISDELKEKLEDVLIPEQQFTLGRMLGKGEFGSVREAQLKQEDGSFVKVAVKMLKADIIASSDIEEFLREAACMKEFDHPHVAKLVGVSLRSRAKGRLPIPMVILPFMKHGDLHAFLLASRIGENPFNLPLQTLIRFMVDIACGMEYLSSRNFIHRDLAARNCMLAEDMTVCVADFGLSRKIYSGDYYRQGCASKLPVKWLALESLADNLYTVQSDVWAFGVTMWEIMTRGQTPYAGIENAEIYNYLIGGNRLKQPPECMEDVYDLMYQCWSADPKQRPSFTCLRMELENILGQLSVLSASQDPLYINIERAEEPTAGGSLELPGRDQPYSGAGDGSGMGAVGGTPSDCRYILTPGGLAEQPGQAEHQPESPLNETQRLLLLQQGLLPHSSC

[17] = biological target: Glycogen synthase kinase-3 beta (Homo sapiens, UniProt P49841); format: functional;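 further: value comes from a broad kinome profiling panel, with GSK3B as the panel member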
Chain of Glycogen synthase kinase-3 beta (P49841 whole entry): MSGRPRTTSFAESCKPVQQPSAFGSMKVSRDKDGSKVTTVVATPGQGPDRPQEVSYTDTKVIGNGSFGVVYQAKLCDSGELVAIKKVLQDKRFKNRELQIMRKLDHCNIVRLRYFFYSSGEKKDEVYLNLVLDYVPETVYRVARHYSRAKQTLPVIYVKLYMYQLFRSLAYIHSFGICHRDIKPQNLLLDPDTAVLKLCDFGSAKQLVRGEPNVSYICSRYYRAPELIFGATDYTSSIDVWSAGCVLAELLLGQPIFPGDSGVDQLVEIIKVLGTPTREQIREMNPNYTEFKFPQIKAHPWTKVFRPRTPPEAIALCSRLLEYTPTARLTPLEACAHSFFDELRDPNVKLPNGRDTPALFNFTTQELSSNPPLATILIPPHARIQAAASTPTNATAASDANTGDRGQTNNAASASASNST

[18] = biological target: Vascular endothelial growth factor receptor 2 (Homo sapiens, UniProt P35968); format: functional
[19] = biological target: Activated CDC42 kinase 1 (Homo sapiens, UniProt Q07912); assay: Navigating the Kinome. Panel member name: ACK1; format: functional
[20] = biological target: Receptor tyrosine-protein kinase erbB-4 (Homo sapiens, UniProt Q15303); format: functional;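 further: ERBB4 member of a kinome-wide kinase profiling panel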
[21] = biological target: Serine/threonine-protein kinase N2 (Homo sapiens, UniProt Q16513); format: functional
[22] = biological target: Dual specificity tyrosine-phosphorylation-regulated kinase 1B (Homo sapiens, UniProt Q9Y463); assay: Navigating the Kinome. Panel member name: DYRK1B; format: functional
Chain of Dual specificity tyrosine-phosphorylation-regulated kinase 1B (Q9Y463 whole entry): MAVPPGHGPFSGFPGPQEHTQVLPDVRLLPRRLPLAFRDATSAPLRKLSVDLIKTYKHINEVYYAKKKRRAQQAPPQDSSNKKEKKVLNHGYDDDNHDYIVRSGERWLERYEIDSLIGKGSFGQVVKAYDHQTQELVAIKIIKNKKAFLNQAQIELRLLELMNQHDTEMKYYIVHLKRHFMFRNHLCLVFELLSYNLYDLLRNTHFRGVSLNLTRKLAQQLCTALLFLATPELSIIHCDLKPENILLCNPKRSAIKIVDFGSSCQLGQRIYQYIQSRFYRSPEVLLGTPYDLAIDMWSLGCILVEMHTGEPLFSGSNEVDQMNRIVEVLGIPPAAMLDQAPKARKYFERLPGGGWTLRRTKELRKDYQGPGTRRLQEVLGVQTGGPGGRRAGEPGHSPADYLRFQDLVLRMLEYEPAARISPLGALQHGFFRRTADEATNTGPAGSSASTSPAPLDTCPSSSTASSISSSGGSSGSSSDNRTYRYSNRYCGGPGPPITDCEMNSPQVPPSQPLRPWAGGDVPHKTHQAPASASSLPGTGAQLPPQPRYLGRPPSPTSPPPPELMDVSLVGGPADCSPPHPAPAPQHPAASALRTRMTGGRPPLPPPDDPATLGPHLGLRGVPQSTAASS

[23] = biological target: Mitogen-activated protein kinase 13 (Homo sapiens, UniProt O15264); format: functional
[24] = biological target: 3-phosphoinositide-dependent protein kinase 1 (Homo sapiens, UniProt O15530); format: functional;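 further: value comes from the Navigating the Kinome panel, PDPK1 member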
[25] = biological target: BDNF/NT-3 growth factors receptor (Homo sapiens, UniProt Q16620); format: functional;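 further: NTRK2 measured as one member of a broad kinome-wide kinase profiling panel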
[26] = cells; format: functional, cell-based
[27] = viability loss in THP-1 monocytes – THP-1 cells, cytotoxicity control for Vif-APOBEC3G degradation inhibitor project, dose response (AID 1117359); format: functional; conditions: THP-1
[28] = biological target: T1, Mannose-6-phosphate isomerase (Homo sapiens, UniProt P34949); assay: MPI inhibition at elevated mannose 6-phosphate – biochemical, fluorescence intensity, high mannose 6-phosphate, primary screen (AID 1220)
T1 sequence (P34949 whole entry): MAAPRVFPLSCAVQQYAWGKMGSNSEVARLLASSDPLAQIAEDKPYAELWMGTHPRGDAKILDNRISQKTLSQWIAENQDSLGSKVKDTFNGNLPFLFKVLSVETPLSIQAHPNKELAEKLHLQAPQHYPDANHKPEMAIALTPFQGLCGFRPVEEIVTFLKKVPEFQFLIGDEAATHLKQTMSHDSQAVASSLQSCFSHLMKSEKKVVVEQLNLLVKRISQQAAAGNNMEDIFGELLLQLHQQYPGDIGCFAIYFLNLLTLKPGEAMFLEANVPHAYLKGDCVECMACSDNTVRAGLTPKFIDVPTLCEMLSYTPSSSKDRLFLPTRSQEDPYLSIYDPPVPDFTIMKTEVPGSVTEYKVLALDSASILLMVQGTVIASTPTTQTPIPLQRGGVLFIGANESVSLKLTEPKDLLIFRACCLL

[29] = biological target: T2, Neuropeptide Y receptor type 1 (Homo sapiens, UniProt P25929); assay: Fluorescence-based dose response cell-based high-throughput screening assay for agonists of NPY-Y1. [Related pubchem assays: 1697 (Screening assay (NPY-Y1 agonists).), 1359 (Screening assay (NPY-Y2 potentiators or agonists).), 1304 (Screening assay (NPY-Y1 potentiators or agonists).), 1704 (Screening assay (CNGC inhibitors).), 1791 (Summary AID.)]; format: functional
T2 sequence (P25929 whole entry): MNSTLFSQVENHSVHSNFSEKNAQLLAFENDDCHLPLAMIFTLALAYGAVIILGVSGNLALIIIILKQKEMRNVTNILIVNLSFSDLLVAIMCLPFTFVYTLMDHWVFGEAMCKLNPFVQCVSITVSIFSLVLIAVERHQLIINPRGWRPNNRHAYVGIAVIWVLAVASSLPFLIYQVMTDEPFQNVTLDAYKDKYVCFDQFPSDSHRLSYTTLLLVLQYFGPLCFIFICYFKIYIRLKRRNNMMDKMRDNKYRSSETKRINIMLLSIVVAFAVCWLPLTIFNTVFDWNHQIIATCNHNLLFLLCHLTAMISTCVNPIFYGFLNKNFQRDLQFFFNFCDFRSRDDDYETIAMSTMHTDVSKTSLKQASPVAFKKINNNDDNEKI

[30] = biological target: T3, Caspase-6 (Homo sapiens, UniProt P55212); assay: inhibition of CASP6 peptide cleavage – biochemical, VEID-R110 fluorescence, cherry-pick, dose response (AID 720632)
T3 sequence (P55212 whole entry): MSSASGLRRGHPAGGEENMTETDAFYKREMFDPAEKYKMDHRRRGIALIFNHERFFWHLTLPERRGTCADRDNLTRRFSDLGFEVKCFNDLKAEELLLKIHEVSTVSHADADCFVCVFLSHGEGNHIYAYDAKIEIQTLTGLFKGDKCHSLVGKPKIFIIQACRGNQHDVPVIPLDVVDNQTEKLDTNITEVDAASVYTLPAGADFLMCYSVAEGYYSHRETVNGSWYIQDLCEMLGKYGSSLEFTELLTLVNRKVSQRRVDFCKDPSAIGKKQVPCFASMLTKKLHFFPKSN

Ki [1]: > 2000 nM (inactive)
Ki [2]: > 3160 nM (inactive)
Ki [3]: 2510 nM (active)
Ki [4]: 20 nM (active)
Ki [5]: > 631 nM (inactive)
Ki [6]: > 1000 nM (inactive)
Ki [7]: 316 nM (active)
Ki [8]: 1000 nM (active)
Ki [9]: 3.98 nM (active)
Ki [10]: 79.4 nM (active)
Ki [11]: > 1260 nM (inactive)
Ki [12]: 251 nM (active)
Ki [13]: > 3160 nM (inactive)
Ki [14]: > 10000 nM (inactive)
Ki [15]: 3160 nM (active)
Ki [16]: > 2510 nM (inactive)
Ki [17]: 63.1 nM (active)
Ki [18]: 1260 nM (active)
Ki [19]: > 3980 nM (inactive)
Ki [20]: > 3980 nM (inactive)
Ki [21]: 12.6 nM (active)
Ki [22]: 316 nM (active)
Ki [23]: 1260 nM (active)
Ki [24]: 50.1 nM (active)
Ki [25]: > 5010 nM (inactive)
Structure (SMILES): OC1CCC(Nc2cc(Cl)nc(-c3c[nH]c4ncccc34)n2)CC1 (stereo not given)

Structure (SMILES): CCOC(=O)c1c(NS(=O)(=O)c2ccccc2)n(CCCOC)c2nc3ccccc3nc12
EC50 [26]: > 350000 nM (not active)

Structure (SMILES): COCC/N=c1\scc(-c2cccs2)n1/N=C/c1ccc(O)c(O)c1O
CC50 [27]: 16500 nM (active)
IC50 [28]: 23800 nM (active)
EC50 [29]: > 11800 nM (not active)

AC50 [30]: 11000 nM (active)
Structure (SMILES): O=C(COC(=O)c1ccc([N+](=O)[O-])s1)NCCc1ccccc1
